The results in this text go back to patent US10183944B2 (Asana Biosciences, LLC, priority 2011, dated 2019).

Each structure is given as a SMILES string. Like-named read-outs stand apart in the source and are kept apart here. Bounds are passed on as bounds.

One experiment has as its system RBL2H3 cells. In words: Degranulation assay: β-hexosaminidase release during immune complex mediated degranulation. Format: cell-based, rat. The note with it: Rattus norvegicus, RBL-2H3; for inhibition at 1 µM: read-out: Degranulation % inhibition at 1 μM; for EC50: read-out: Degranulation EC50. In short, it runs like this: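 Fluorometric β-NAG read-out (Ex 355, Em 460 nm; 30 min, RT) of supernatant after DNP-BSA stimulation (45–60 min) of anti-DNP IgE-sensitized RBL2H3 cells. Compounds (0.5% DMSO) added 15 min before antigen; degranulation expressed as % β-hexosaminidase release or inhibition.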

The next experiment addresses JAK2 (Homo sapiens (Human), UniProt O60674). In words: Inhibition of enzymatic JAK2 kinase activity (TR-FRET). Conditions: read-out: IC50 JAK. It counts as biochemical. The gist of the method: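 TR-FRET read-out (Eu antibody donor, Ulight poly Glu-Tyr acceptor, 665/615 nm ratio) after a 60 min RT kinase reaction with ATP, begun following 30 min compound–enzyme preincubation. Stopped by EDTA; inhibition expressed as 100 minus % activity of positive control.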
For orientation: TR-FRET usually uses a lanthanide donor and a delayed reading to cut background.

[1] abbreviates: Assay Protocol A (24 well format).
Setting [2] is: Assay Protocol B (96 well format).

Sequence of JAK2 (O60674 808-1132): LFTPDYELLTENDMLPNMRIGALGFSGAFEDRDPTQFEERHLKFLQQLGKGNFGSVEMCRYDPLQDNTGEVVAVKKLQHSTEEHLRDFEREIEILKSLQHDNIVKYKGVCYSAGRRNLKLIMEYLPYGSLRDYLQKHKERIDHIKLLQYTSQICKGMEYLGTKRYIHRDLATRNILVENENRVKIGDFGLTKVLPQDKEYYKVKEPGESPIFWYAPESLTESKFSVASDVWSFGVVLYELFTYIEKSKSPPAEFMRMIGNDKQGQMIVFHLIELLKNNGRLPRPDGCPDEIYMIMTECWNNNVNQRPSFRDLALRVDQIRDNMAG

One may read the inhibition as the change of the read-out against control, counted positive when it falls. In general, EC50 refers to the midpoint of the concentration-response curve. A word on the IC50: it is the concentration that gives 50% inhibition. Turning to `Cl.O=c1[nH]ncc2nc(-c3ccccc3)nc(Nc3ccc(CN4CCNCC4)cc3)c12` [Example 7, 2-phenyl-4-(4-(piperazin-1-ylmethyl)phenylamino)pyrimido[4,5-d]pyridazin-5(6H)-one hydrochloride], in the experiment with RBL2H3 cells (setting [1]), the inhibition at 1 µM worked out at 92% and the EC50 stood at 86 nM. Further, on JAK2, the IC50 was < 50 nM.
As to `O=C(O)C1CCN(c2ccc(Nc3nc(-c4ccccc4)nc4cn[nH]c(=O)c34)cc2)CC1` [Example 13, 1-(4-(5-oxo-2-phenyl-5,6-dihydropyrimido[4,5-d]pyridazin-4-ylamino)phenyl)piperidine-4-carboxylic acid], in the experiment on RBL2H3 cells (setting [1]), the inhibition at 1 µM worked out at 100% and the EC50 was determined as 47 nM. Also, the concentration for half-maximal inhibition (IC50) on JAK2 is < 10 nM.
Turning to `O=C(O)C1CC12CCN(c1ccc(Nc3nc(-c4ccccc4)nc4cn[nH]c(=O)c34)cc1)CC2` (stereo not drawn) [Example 19, 6-(4-(5-oxo-2-phenyl-5,6-dihydropyrimido[4,5-d]pyridazin-4-ylamino)phenyl)-6-azaspiro[2.5]octane-1-carboxylic acid], in the experiment on RBL2H3 cells (setting [1]), the inhibition at 1 µM was 100% and the EC50 was found to be 19 nM. For the same compound, on JAK2, the IC50 was < 10 nM.
With `O=C(O)C1CC12CCN(c1ccc(Nc3nc(N4CCCCCC4)nc4cn[nH]c(=O)c34)cc1)CC2` (stereo not drawn) [Example 62, 6-(4-((2-(azepan-1-yl)-5-oxo-5,6-dihydropyrimido[4,5-d]pyridazin-4-yl)amino)phenyl)-6-azaspiro[2.5]octane-1-carboxylic acid], in the experiment with RBL2H3 cells (setting [2]), the inhibition at 1 µM was found to be 100% and the EC50 worked out at 49 nM. Moreover, at JAK2, the IC50 is < 10 nM.
Take `O=C(O)CC1CCN(c2ccc(Nc3nc(N4CCCCCC4)nc4cn[nH]c(=O)c34)cn2)CC1` [Example 108, 2-(1-(5-((2-(azepan-1-yl)-5-oxo-5,6-dihydropyrimido[4,5-d]pyridazin-4-yl)amino)pyridin-2-yl)piperidin-4-yl) acetic acid]: in the experiment on RBL2H3 cells (setting [2]), the inhibition at 1 µM is 98% and the EC50 was found to be 68 nM. The IC50 on JAK2 was < 10 nM.
The matching figures for `N#CCC1CCN(c2nc(Nc3ccc(N4CCC(O)CC4)cc3)c3c(=O)[nH]ncc3n2)CC1` [Example 189, 2-(1-(4-((4-(4-hydroxypiperidin-1-yl)phenyl)amino)-5-oxo-5,6-dihydropyrimido[4,5-d]pyridazin-2-yl)piperidin-4-yl)acetonitrile]: 98%, 14 nM and < 50 nM.
Turning to `N#CCC1CCN(c2nc(Nc3ccc(N4CCN(CCO)CC4)cc3)c3c(=O)[nH]ncc3n2)CC1` [Example 191, 2-(1-(4-((4-(4-(2-hydroxyethyl)piperazin-1-yl)phenyl)amino)-5-oxo-5,6-dihydropyrimido[4,5-d]pyridazin-2-yl)piperidin-4-yl)acetonitrile], in the experiment on RBL2H3 cells (setting [2]), the inhibition at 1 µM was 92% and the EC50 was determined as 21 nM. Besides, on JAK2, the IC50 was < 10 nM.
